Laboratory results reported in patent US10821115B2, “Compounds that inhibit Mcl-1 protein” (priority 2017, dated 2020).
Read-outs that look alike come from different tables or passages of the source.

Legend:
[1] = biological target: recombinant human Mcl-1 (residues 171-327) / Bim interaction (Homo sapiens (Human), UniProt Q07820); assay: biochemical; format: binding; conditions: read-out: Mcl-1 HTRF IC50
[2] = system: human multiple myeloma cell line, OPM-2; assay: Cell viability assay (OPM-2 10 FBS), CellTiter-Glo; format: cell-based
Procedure, shortened: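 OPM-2 cells at 3000 cells/well in RPMI 1640 with 10% FBS were exposed to serially diluted compounds for 16 h at 37 °C, 5% CO2.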

[3] = TR-FRET, Mcl-1(171-327) / biotin-Bim (51-76)
[4] = Homo sapiens, OPM-2, 16 h, read-out: OPM-2 10% FBS IC50 IP, OPM-2 cells, 10% FBS, 16 h, CellTiter-Glo
[5] = 0.1 nM Mcl-1(171-327), 0.05 nM biotin-Bim (51-76)
[6] = Homo sapiens, OPM-2, 16 h, read-out: OPM-2 10% FBS IC50 IP, OPM-2 cells, 10% FBS, 16 h incubation
[7] = read-out: OPM-2 10% FBS IC50 IP, OPM-2 cells, 10% FBS, 16 h, CellTiter-Glo

Sequence of recombinant human Mcl-1 (residues 171-327) / Bim interaction (Q07820 171-327): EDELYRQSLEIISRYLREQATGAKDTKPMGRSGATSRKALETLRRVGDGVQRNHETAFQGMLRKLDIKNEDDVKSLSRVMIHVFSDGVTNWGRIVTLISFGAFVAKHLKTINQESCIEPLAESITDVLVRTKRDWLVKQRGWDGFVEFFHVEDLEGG

Row | Structure (SMILES) | IC50 [1, 3] [nM] | IC50 [2, 4] [nM] | IC50 [1, 5] [nM] | other results
1 | COCCOC[C@@]1(O)/C=C/C[C@H](C)[C@@H](C)S(=O)(=O)NC(=O)c2ccc3c(c2)N(C[C@@H]2CC[C@H]21)C[C@@]1(CCCc2cc(Cl)ccc21)CO3 [Example 100445, (1S,3′R,6′R,7′R,8′E,11′S,12′R)-6-chloro-7′-hydroxy-7′-((2-methoxyethoxy)methyl)-11′,12′-dimethyl-3,4-dihydro-2H,15′H-spiro[naphthalene-1,22′-[20]oxa[13]thia[1,14]diazatetracyclo [14.7.2.0~3,6~.0~19,24~]pentacosa[8,16,18,24]tetraen]-15′-one 13′,13′-dioxide] | 0.04 | 98 |  | 
2 | CCO[C@]1(CN2CCN(C(C)C)CC2)/C=C/C[C@H](C)[C@@H](C)S(=O)(=O)NC(=O)c2ccc3c(c2)N(C[C@@H]2CC[C@H]21)C[C@@]1(CCCc2cc(Cl)ccc21)CO3 [Example 114, (1S,3′R,6′R,7′R,8′E,11′S,12′R)-6-chloro-7′-ethoxy-11′,12′-dimethyl-7′-((4-(1-methylethyl)-1-piperazinyl)methyl)-3,4-dihydro-2H,15′H-spiro[naphthalene-1,22′-[20]oxa[13]thia[1,14]diazatetracyclo [14.7.2.0~3,6~.0~19,24~]pentacosa[8,16,18,24]tetraen]-15′-one 13′,13′-dioxide] |  |  | 0.104 | IC50 [2, 6]: 68 nM
3 | CO[C@]1(C)CCC[C@H](C)[C@@H](C)S(=O)(=O)NC(=O)c2ccc3c(c2)N(C[C@@H]2CC[C@H]21)C[C@@]1(CCCc2cc(Cl)ccc21)CO3 (single isomer, unassigned) [Example 100211] | 1.44 |  |  | IC50 [2, 7]: 4780 nM
4 | CO[C@@]1(CN2CCN3CCS(=O)(=O)C[C@@H]3C2)/C=C/C[C@H](C)[C@@H](C)S(=O)(=O)NC(=O)c2ccc3c(c2)N(C[C@@H]2CC[C@H]21)C[C@@]1(CCCc2cc(Cl)ccc21)CO3 (single isomer, unassigned) [Example 232] |  |  | 0.141 | IC50 ([2]; read-out: OPM-2 10% FBS IC50 IP, OPM-2 cells, 10% FBS, 16 h incubation): 200 nM
5 | CCOP(=O)(OCC)C(F)(F)[C@]1(O)/C=C/C[C@H](C)[C@@H](C)S(=O)(=O)NC(=O)c2ccc3c(c2)N(C[C@@H]2CC[C@H]21)C[C@@]1(CCCc2cc(Cl)ccc21)CO3 [Example 100067, diethyl (((1S,3′R,6′R,7′S,8′E,11′S,12′R)-6-chloro-7′-hydroxy-11′,12′-dimethyl-13′,13′-dioxido-15′-oxo-3,4-dihydro-2H-spiro[naphthalene-1,22′-[20]oxa[13]thia[1,14]diazatetracyclo [14.7.2.0~3,6~.0~19,24~]pentacosa[8,16,18,24]tetraen]-7′-yl)(difluoro)methyl)phosphonate] | 1.01 |  |  | IC50 [2, 7]: 271 nM
6 | CO[C@@]1(CN2CCC2)/C=C/C[C@H](C)[C@@H](C)S(=O)(=O)NC(=O)c2ccc3c(c2)N(C[C@@H]2CC[C@H]21)C[C@@]1(CCCc2cc(Cl)ccc21)CO3 [Example 77, (1S,3′R,6′R,7′S,8′E,11′S,12′R)-7′-(1-azetidinylmethyl)-6-chloro-7′-methoxy-11′,12′-dimethyl-3,4-dihydro-2H,15′H-spiro[naphthalene-1,22′-[20]oxa[13]thia[1,14]diazatetracyclo [14.7.2.0~3,6~.0~19,24~]pentacosa[8,16,18,24]tetraen]-15′-one 13′,13′-dioxide] |  |  | 1.22 | IC50 [2, 6]: 415 nM
7 | CO[C@@]1(C[C@@H](O)C(C)C)/C=C/C[C@H](C)[C@@H](C)S(=O)(=O)NC(=O)c2ccc3c(c2)N(C[C@@H]2CC[C@H]21)C[C@@]1(CCCc2cc(Cl)ccc21)CO3 (single isomer, unassigned) [Example 100367] | 0.371 |  |  | IC50 [2, 7]: 604 nM
8 | CO[C@@]1(CC(=O)N2CC[C@@H](N(C)C)C2)/C=C/C[C@H](C)[C@@H](C)S(=O)(=O)NC(=O)c2ccc3c(c2)N(C[C@@H]2CC[C@H]21)C[C@@]1(CCCc2cc(Cl)ccc21)CO3 (single isomer, unassigned) [Example 100318] | 0.095 | 114 |  | 
9 | CO[C@@]1(CN2CCN(C3CN(C)C3)CC2)/C=C/C[C@H](C)[C@@H](C)S(=O)(=O)NC(=O)c2ccc3c(c2)N(C[C@@H]2CC[C@H]21)C[C@@]1(CCCc2cc(Cl)ccc21)CO3 [Example 282, (1S,3′R,6′R,7′S,8′E,11′S,12′R)-6-chloro-7′-methoxy-11′,12′-dimethyl-7′-((4-(1-methyl-3-azetidinyl)-1-piperazinyl)methyl)-3,4-dihydro-2H,15′H-spiro[naphthalene-1,22′-[20]oxa[13]thia[1,14]diazatetracyclo [14.7.2.0~3,6~.0~19,24~]pentacosa[8,16,18,24]tetraen]-15′-one 13′,13′-dioxide] |  |  | 0.118 | IC50 [2, 6]: 486 nM
10 | C[C@@H]1[C@@H](C)C/C=C/[C@@](O)(C#CCN2CCCCC2)[C@@H]2CC[C@H]2CN2C[C@@]3(CCCc4cc(Cl)ccc43)COc3ccc(cc32)C(=O)NS1(=O)=O [Example 100421, (1S,3′R,6′R,7′S,8′E,11′S,12′R)-6-chloro-7′-hydroxy-11′,12′-dimethyl-7′-(3-(1-piperidinyl)-1-propyn-1-yl)-3,4-dihydro-2H,15′H-spiro[naphthalene-1,22′-[20]oxa[13]thia[1,14]diazatetracyclo [14.7.2.0~3,6~.0~19,24~]pentacosa[8,16,18,24]tetraen]-15′-one 13′,13′-dioxide] | 3.93 |  |  | IC50 [2, 7]: 4930 nM
11 | CO[C@]1(COCCN2CCOCC2)/C=C/C[C@H](C)[C@@H](C)S(=O)(=O)NC(=O)c2ccc3c(c2)N(C[C@@H]2CC[C@H]21)C[C@@]1(CCCc2cc(Cl)ccc21)CO3 [Example 100594, (1S,3′R,6′R,7′R,8′E,11′S,12′R)-6-chloro-7′-methoxy-11′,12′-dimethyl-7′-((2-(4-morpholinyl)ethoxy)methyl)-3,4-dihydro-2H,15′H-spiro[naphthalene-1,22′-[20]oxa[13]thia[1,14]diazatetracyclo [14.7.2.0~3,6~.0~19,24~]pentacosa[8,16,18,24]tetraen]-15′-one 13′,13′-dioxide] | 0.143 | 241 |  | 
12 | CC(C)CO[C@@]1(CN2CCN3CCCC[C@@H]3C2)/C=C/C[C@H](C)[C@@H](C)S(=O)(=O)NC(=O)c2ccc3c(c2)N(C[C@@H]2CC[C@H]21)C[C@@]1(CCCc2cc(Cl)ccc21)CO3 [Example 350, (15,3′R,6′R,7′S,8′E,11′S,12′R)-6-chloro-11′,12′-dimethyl-7′-(2-methylpropoxy)-7′-((9aR)-octahydro-2H-pyrido[1,2-a]pyrazin-2-ylmethyl)-3,4-dihydro-2H,15′H-spiro[naphthalene-1,22′-[20]oxa[13]thia[1,14]diazatetracyclo [14.7.2.0~3,6~.0~19,24~]pentacosa[8,16,18,24]tetraen]-15′-one 13′,13′-dioxide] |  |  | 12.3 | IC50 [2, 6]: > 33300 nM
13 | C[C@@H]1[C@@H](C)C/C=C/[C@](O)([C@@H](C)C(=O)OC(C)(C)C)[C@@H]2CC[C@H]2CN2C[C@@]3(CCCc4cc(Cl)ccc43)COc3ccc(cc32)C(=O)NS1(=O)=O (single isomer, unassigned) [Example 100110] | 1.48 | 686 |  | 
14 | C[C@@H]1[C@@H](C)C/C=C/[C@](O)(CC(=O)N(C)c2ccccc2)[C@@H]2CC[C@H]2CN2C[C@@]3(CCCc4cc(Cl)ccc43)COc3ccc(cc32)C(=O)NS1(=O)=O (single isomer, unassigned) [Example 100248] | 11.1 | 6680 |  | 
15 | C[C@@H]1[C@@H](C)C/C=C/[C@@](O)(c2ccncc2F)[C@@H]2CC[C@H]2CN2C[C@@]3(CCCc4cc(Cl)ccc43)COc3ccc(cc32)C(=O)NS1(=O)=O (single isomer, unassigned) [Example 100370] | 0.153 | 258 |  | 
16 | CO[C@]1(CC2=NC(C)(C)CO2)/C=C/C[C@H](C)[C@@H](C)S(=O)(=O)NC(=O)c2ccc3c(c2)N(C[C@@H]2CC[C@H]21)C[C@@]1(CCCc2cc(Cl)ccc21)CO3 [Example 100380, (1S,3′R,6′R,7′R,8′E,11′S,12′R)-6-chloro-7′-((4,4-dimethyl-4,5-dihydro-1,3-oxazol-2-yl)methyl)-7′-methoxy-11′,12′-dimethyl-3,4-dihydro-2H,15′H-spiro[naphthalene-1,22′-[20]oxa[13]thia[1,14]diazatetracyclo [14.7.2.0~3,6~.0~19,24~]pentacosa[8,16,18,24]tetraen]-15′-one 13′,13′-dioxide] | 0.208 | 137 |  | 
17 | COC(OC)c1cncc([C@@]2(OC)/C=C/C[C@H](C)[C@@H](C)S(=O)(=O)NC(=O)c3ccc4c(c3)N(C[C@@H]3CC[C@H]32)C[C@@]2(CCCc3cc(Cl)ccc32)CO4)c1 (single isomer, unassigned) [Example 100511] | 0.07 | 430 |  | 
18 | CO[C@@]1(CN2CCN3CCOC[C@@H]3C2)/C=C/C[C@H](C)[C@@H](C)S(=O)(=O)NC(=O)c2ccc3c(c2)N(C[C@@H]2CC[C@H]21)C[C@@]1(CCCc2cc(Cl)ccc21)CO3 [Example 56, (1S,3′R,6′R,7′S,8′E,11′S,12′R)-6-chloro-7′-((9aS)-hexahydropyrazino[2,1-c][1,4]oxazin-8(1H)-ylmethyl)-7′-methoxy-11′,12′-dimethyl-3,4-dihydro-2H,15′H-spiro[naphthalene-1,22′-[20]oxa[13]thia[1,14]diazatetracyclo [14.7.2.0~3,6~.0~19,24~]pentacosa[8,16,18,24]tetraen]-15′-one 13′,13′-dioxide] |  |  | 0.083 | IC50 [2, 6]: 79 nM
19 | C[C@@H]1[C@@H](C)CCC[C@](O)([C@@H](C)C(=O)N(C)C)[C@@H]2CC[C@H]2CN2C[C@@]3(CCCc4cc(Cl)ccc43)COc3ccc(cc32)C(=O)NS1(=O)=O (single isomer, unassigned) [Example 100118] | 4.44 |  |  | IC50 [2, 7]: 3950 nM
